The first experiment concerns the target T1, full-length SHP2 (His6-tagged SHP2(2-527)) (Homo sapiens, UniProt Q06124).
T1 construct: His6-tagged SHP2(2-527); His6; made in house; host or cells: E. coli
Briefly: SHP2 Enzymatic Assay (fluorescence intensity kinetic assay, DiFMUP hydrolysis). In kind it is biochemical.
Conditions: not given
Put shortly:
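1 nM His6-SHP2(2-527), activated by 1 μM bis-phosphopeptide, hydrolysed 50 μM DiFMUP in 25 mM HEPES pH 7.4 with 1 mM DTT, 50 mM KCl and 2% DMSO. DiFMU fluorescence (Ex 355/Em 460 nm) was read kinetically for 15 min at ambient temperature.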
T1 sequence (Q06124 2-527): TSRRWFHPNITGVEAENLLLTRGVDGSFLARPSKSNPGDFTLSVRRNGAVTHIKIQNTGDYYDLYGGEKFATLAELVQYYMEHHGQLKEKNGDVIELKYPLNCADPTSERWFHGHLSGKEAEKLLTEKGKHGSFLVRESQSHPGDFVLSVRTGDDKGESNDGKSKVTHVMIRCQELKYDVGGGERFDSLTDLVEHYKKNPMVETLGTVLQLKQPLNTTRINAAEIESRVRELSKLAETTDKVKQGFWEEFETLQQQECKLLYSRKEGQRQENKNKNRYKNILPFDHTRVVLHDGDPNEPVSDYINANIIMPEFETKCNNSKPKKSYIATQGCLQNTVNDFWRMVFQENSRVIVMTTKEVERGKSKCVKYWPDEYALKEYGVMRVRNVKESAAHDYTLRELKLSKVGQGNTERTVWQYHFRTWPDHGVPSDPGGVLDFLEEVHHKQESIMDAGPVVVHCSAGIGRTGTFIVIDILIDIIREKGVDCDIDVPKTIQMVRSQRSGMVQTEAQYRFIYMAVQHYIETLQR
Regarding `CNc1nccc(Sc2ccc3nc(N4CCC(C)(N)CC4)cnc3n2)c1Cl` [Example 161, 4-((2-(4-amino-4-methylpiperidin-1-yl)pyrido[2,3-b]pyrazin-6-yl)thio)-3-chloro-N-methylpyridin-2-amine], 45 nM corresponded to half-maximal inhibition (IC50).

As to `N[C@@H]1c2ccccc2CC12CCN(c1cnc3nc(Sc4cccnc4C(F)(F)F)ccc3n1)CC2` [Example 162, (S)-1′-(6-((2-(trifluoromethyl)pyridin-3-yl)thio)pyrido[2,3-b]pyrazin-2-yl)-1,3-dihydrospiro[indene-2,4′-piperidin]-1-amine], the IC50 was found to be 39 nM.

`Nc1nccc(Sc2ccc3nc(N4CC5(Cc6ccccc6[C@@H]5N)C4)cnc3n2)c1Cl` [Example 164, (S)-1-(6-((2-amino-3-chloropyridin-4-yl)thio)pyrido[2,3-b]pyrazin-2-yl)-1′,3′-dihydrospiro[azetidine-3,2′-inden]-1′-amine] had an IC50 of 203 nM.

For the compound `Nc1nccc(Sc2ccc3nc(N4CCC5(CC4)c4ccccc4[C@H]5N)cnc3n2)c1Cl` [Example 165, (S)-1′-(6-((2-amino-3-chloropyridin-4-yl)thio)pyrido[2,3-b]pyrazin-2-yl)spiro[bicyclo[4.2.0]octane-7,4′-piperidine]-1(6),2,4-trien-8-amine], the IC50 amounted to 16000 nM.

Compound `Nc1nccc(Sc2ccc3nc(N4CCC5(CC4)c4ccccc4[C@@H]5N)cnc3n2)c1Cl` [Example 166, (R)-1′-(6-((2-amino-3-chloropyridin-4-yl)thio)pyrido[2,3-b]pyrazin-2-yl)spiro[bicyclo[4.2.0]octane-7,4′-piperidine]-1(6),2,4-trien-8-amine] displayed an IC50 of 3990 nM.

Compound `Nc1nccc(Sc2ccc3nc(N4CCC5(CC4)Cc4ncccc4[C@@H]5N)cnc3n2)c1Cl` [Example 167, (R)-1′-(6-((2-amino-3-chloropyridin-4-yl)thio)pyrido[2,3-b]pyrazin-2-yl)-5,7-dihydrospiro[cyclopenta[b]pyridine-6,4′-piperidin]-5-amine] yielded an IC50 of 50 nM.

Compound `Cc1cccc2c1CC1(CCN(c3cnc4nc(Sc5ccnc(N)c5Cl)ccc4n3)CC1)[C@H]2N` [Example 168, (R)-1′-(6-((2-amino-3-chloropyridin-4-yl)thio)pyrido[2,3-b]pyrazin-2-yl)-4-methyl-1,3-dihydrospiro[indene-2,4′-piperidin]-1-amine] yielded an IC50 of 54 nM.

For the compound `Nc1nccc(Sc2ccc3nc(N4CCC5(CC4)Cc4cc(Cl)ccc4[C@@H]5N)cnc3n2)c1Cl` [Example 170, (R)-1′-(6-((2-amino-3-chloropyridin-4-yl)thio)pyrido[2,3-b]pyrazin-2-yl)-5-chloro-1,3-dihydrospiro[indene-2,4′-piperidin]-1-amine], the IC50 is 62 nM.

With `COc1nc(N)cc(Sc2ccc3nc(N4CCC5(CC4)Cc4ccccc4[C@H]5N)cnc3n2)c1Cl` [Example 171, (S)-1′-(6-((6-amino-3-chloro-2-methoxypyridin-4-yl)thio)pyrido[2,3-b]pyrazin-2-yl)-1,3-dihydrospiro[indene-2,4′-piperidin]-1-amine], the IC50 worked out at 56 nM.

`N#Cc1ccc2ncc(Sc3ccc4nc(N5CCC6(CC5)Cc5ccccc5[C@H]6N)cnc4n3)n2c1` [Example 172, (S)-3-((2-(1-amino-1,3-dihydrospiro[indene-2,4′-piperidin]-1′-yl)pyrido[2,3-b]pyrazin-6-yl)thio)imidazo[1,2-a]pyridine-6-carbonitrile] registered an IC50 of 112 nM.

As for `CCCC1(N)CCN(c2cnc3nc(Sc4ccnc(N)c4Cl)ccc3n2)CC1` [Example 173, 4-((2-(4-amino-4-propylpiperidin-1-yl)pyrido[2,3-b]pyrazin-6-yl)thio)-3-chloropyridin-2-amine], the IC50 was determined as 237 nM.

`Cc1nccc(Sc2ccc3nc(N4CCC5(CC4)CO[C@@H](C)[C@H]5N)cnc3n2)c1C` [Example 174, (3S,4S)-8-(6-((2,3-dimethylpyridin-4-yl)thio)pyrido[2,3-b]pyrazin-2-yl)-3-methyl-2-oxa-8-azaspiro[4.5]decan-4-amine] showed a half-inhibitory concentration (IC50) of 335 nM.

In the case of `C[C@@H]1OCC2(CCN(c3cnc4nc(Sc5ccnc(N)c5F)ccc4n3)CC2)[C@@H]1N` [Example 175, (3S,4S)-8-(6-((2-amino-3-fluoropyridin-4-yl)thio)pyrido[2,3-b]pyrazin-2-yl)-3-methyl-2-oxa-8-azaspiro[4.5]decan-4-amine], 1230 nM corresponded to half-maximal inhibition (IC50).

On to `C[C@@H]1OCC2(CCN(c3cnc4nc(Sc5ccc(N)nc5C(F)(F)F)ccc4n3)CC2)[C@@H]1N` [Example 176, (3S,4S)-8-(6-((6-amino-2-(trifluoromethyl)pyridin-3-yl)thio)pyrido[2,3-b]pyrazin-2-yl)-3-methyl-2-oxa-8-azaspiro[4.5]decan-4-amine], for which the IC50 is 109 nM.

On to `C[C@@H]1OCC2(CCN(c3cnc4nc(Sc5ccnc(Cl)c5Cl)ccc4n3)CC2)[C@@H]1N` [Example 177, (3S,4S)-8-(6-((2,3-dichloropyridin-4-yl)thio)pyrido[2,3-b]pyrazin-2-yl)-3-methyl-2-oxa-8-azaspiro[4.5]decan-4-amine], for which the IC50 is 220 nM.

Turning to `Cc1ccc2c(c1)[C@H](N)C1(CCN(c3cnc4nc(Sc5ccnc(N)c5Cl)ccc4n3)CC1)C2` [Example 179, (R)-1′-(6-((2-amino-3-chloropyridin-4-yl)thio)pyrido[2,3-b]pyrazin-2-yl)-6-methyl-1,3-dihydrospiro[indene-2,4′-piperidin]-1-amine], the IC50 worked out at 80 nM.

With `Nc1nccc(Sc2ccc3nc(N4CCC(N)(Cc5ccccn5)CC4)cnc3n2)c1Cl` [Example 180, 4-((2-(4-amino-4-(pyridin-2-ylmethyl)piperidin-1-yl)pyrido[2,3-b]pyrazin-6-yl)thio)-3-chloropyridin-2-amine], the IC50 turned out to be 274 nM.

`Nc1nccc(Sc2ccc3nc(N4CCC(N)(Cc5ccccc5)CC4)cnc3n2)c1Cl` [Example 181, 4-((2-(4-amino-4-benzylpiperidin-1-yl)pyrido[2,3-b]pyrazin-6-yl)thio)-3-chloropyridin-2-amine]: the IC50 is 75 nM.

`COCCC1(N)CCN(c2cnc3nc(Sc4ccnc(N)c4Cl)ccc3n2)CC1` [Example 182, 4-((2-(4-amino-4-(2-methoxyethyl)piperidin-1-yl)pyrido[2,3-b]pyrazin-6-yl)thio)-3-chloropyridin-2-amine] registered an IC50 of 80 nM.

`COCCNc1nccc(Sc2ccc3nc(N4CCC5(CC4)CO[C@@H](C)[C@H]5N)cnc3n2)c1Cl` [Example 183, (3S,4S)-8-(6-((3-chloro-2-((2-methoxyethyl)amino)pyridin-4-yl)thio)pyrido[2,3-b]pyrazin-2-yl)-3-methyl-2-oxa-8-azaspiro[4.5]decan-4-amine] came in with an IC50 of 268 nM.

In turn, `C[C@@H]1OCC2(CCN(c3cnc4nc(Sc5ccnc(NC6CC6)c5Cl)ccc4n3)CC2)[C@@H]1N` [Example 184, (3S,4S)-8-(6-((3-chloro-2-(cyclopropylamino)pyridin-4-yl)thio)pyrido[2,3-b]pyrazin-2-yl)-3-methyl-2-oxa-8-azaspiro[4.5]decan-4-amine] yielded an IC50 of 413 nM.

Still in this experiment, the particulars now being: full-length SHP2 with 1 μM activating peptide, 50 μM DiFMUP; single assay or mean of multiple assays; read-out: Biological Example 1 IC50.
With `Nc1nccc(Sc2ccc3nc(N4CCC5(CC4)C[C@@H](O)C[C@H]5N)cnc3n2)c1Cl` [Example 160, (2R,4R)-4-amino-8-(6-((2-amino-3-chloropyridin-4-yl)thio)pyrido[2,3-b]pyrazin-2-yl)-8-azaspiro[4.5]decan-2-ol], the concentration for half-maximal inhibition (IC50) is 60 nM.

As usually defined, the IC50 is the concentration at which inhibition is half-maximal.

These data come from patent publication US12187721B2, “Protein tyrosine phosphatase inhibitors” (Array BioPharma Inc., priority 2018, dated 2025).
